Measured values published in BigSolDB 2.1.

NC(CO)(CO)CO
solubility (mole fraction)
Details | 293.2 K | 298.2 K | 303.2 K | 308.2 K | 313.2 K
in n-propanol | 0.0038 | 0.005 | 0.0063 | 0.0072 | 0.0088
in water | 0.0831 | 0.092 | 0.101 | 0.11 | 0.123
